Our source for the DC50, Dmax and IC50 values is patent publication US20250214991A1 (Oncopia Therapeutics, Inc. d/b/a/ SK Life Science Labs, priority 2022, published 2025).

Molecules are shown by their SMILES.

In assay [1] the target is IKZF2 (Homo sapiens (Human), UniProt Q96SW2+Q9UKS7). Put plainly: In vitro IKZF2 HiBit Assay (HEK293T Flp-in-HiBiT cells). In kind it is cell-based. Conditions: HEK293T Flp-in-HiBiT cells, 6 hrs incubation; for DC50: read-out: IKZF2 HiBit DC50; for Dmax: HEK-293T, read-out: IKZF2 HiBit Dmax (%). In short, it runs like this:
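Remaining tagged Helios was read as lytic HiBiT/LgBiT luminescence normalized to DMSO, yielding binned DC50 and Dmax values. Treatment ran 6 h, with compounds at 11 three-fold doses diluted from 1 mM and 0.1% final DMSO. The cells were HEK293T Flp-in with CRISPR knock-in of HiBiT at the IKZF2 N-terminus.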

Assay [2] deals with CRBN/DDB1 (Homo sapiens (Human), UniProt Q96SW2). Put plainly: IC50 measurements for binding to CRBN/DDB1 (HTRF). The following applies: His tagged CRBN+DDB, Cy5-labeled Thalidomide probe, one hour. The essentials: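 Serially diluted compounds compete with a Cy5-labeled thalidomide tracer (60 nM) for His-tagged CRBN-DDB1 (2 nM), detected via anti-6His Tb cryptate (0.4 nM); buffer HEPES pH 7.5 with TCEP, Brij-35, NaCl, BSA. One-hour room-temperature incubation, HTRF signal read, IC50 by four-parameter curve.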
CRBN/DDB1, sequence (Q96SW2 whole entry, species assumed): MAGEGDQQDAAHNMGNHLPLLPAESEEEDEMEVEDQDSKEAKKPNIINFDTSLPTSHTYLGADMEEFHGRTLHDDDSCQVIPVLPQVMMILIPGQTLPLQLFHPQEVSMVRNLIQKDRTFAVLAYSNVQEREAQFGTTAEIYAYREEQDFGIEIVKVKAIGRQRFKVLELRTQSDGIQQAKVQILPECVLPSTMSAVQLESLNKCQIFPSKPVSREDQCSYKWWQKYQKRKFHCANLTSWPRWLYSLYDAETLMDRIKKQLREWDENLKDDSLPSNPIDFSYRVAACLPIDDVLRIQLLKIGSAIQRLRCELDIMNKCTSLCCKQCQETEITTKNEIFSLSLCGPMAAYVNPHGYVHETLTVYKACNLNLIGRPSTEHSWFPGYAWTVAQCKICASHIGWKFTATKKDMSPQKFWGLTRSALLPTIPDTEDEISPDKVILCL
CRBN/DDB1, sequence (Q16531 whole entry partner, species assumed): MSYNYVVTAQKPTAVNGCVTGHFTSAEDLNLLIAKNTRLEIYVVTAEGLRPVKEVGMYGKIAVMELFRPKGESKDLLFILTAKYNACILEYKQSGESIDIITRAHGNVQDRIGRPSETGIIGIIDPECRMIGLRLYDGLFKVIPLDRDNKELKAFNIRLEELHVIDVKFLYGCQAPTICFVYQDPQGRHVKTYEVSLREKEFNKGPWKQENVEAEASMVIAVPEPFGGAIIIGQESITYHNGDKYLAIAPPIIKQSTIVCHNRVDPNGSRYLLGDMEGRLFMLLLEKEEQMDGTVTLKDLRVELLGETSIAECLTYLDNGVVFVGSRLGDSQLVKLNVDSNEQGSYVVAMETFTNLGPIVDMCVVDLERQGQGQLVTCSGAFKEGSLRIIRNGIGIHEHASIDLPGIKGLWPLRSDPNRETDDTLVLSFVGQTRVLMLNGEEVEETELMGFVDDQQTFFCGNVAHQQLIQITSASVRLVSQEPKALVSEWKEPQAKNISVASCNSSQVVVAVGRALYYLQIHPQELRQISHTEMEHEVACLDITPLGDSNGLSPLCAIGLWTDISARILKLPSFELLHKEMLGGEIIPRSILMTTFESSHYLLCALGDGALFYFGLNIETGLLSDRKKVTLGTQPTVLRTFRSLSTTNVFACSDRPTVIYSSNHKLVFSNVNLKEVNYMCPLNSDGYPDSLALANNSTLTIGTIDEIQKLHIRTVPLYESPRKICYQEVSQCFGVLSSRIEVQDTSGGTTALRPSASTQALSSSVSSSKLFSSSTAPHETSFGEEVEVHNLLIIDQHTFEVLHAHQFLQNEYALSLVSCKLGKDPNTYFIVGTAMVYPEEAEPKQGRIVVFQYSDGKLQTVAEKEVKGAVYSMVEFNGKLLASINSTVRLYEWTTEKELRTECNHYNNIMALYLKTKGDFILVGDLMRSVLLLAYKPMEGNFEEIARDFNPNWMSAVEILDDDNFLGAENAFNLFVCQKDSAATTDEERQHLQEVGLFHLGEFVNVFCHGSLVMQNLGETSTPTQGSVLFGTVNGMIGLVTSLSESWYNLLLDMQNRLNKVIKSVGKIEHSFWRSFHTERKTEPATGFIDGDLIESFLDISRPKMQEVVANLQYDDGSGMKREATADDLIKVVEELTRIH

The target of assay [3] is IKZF1 (Homo sapiens (Human), UniProt Q13422+Q96SW2). The assay can be described thus: In vitro IKZF1 HiBit Assay (HEK293T Flp-in-HiBiT-IKZF1 stable cell line). In kind it is cell-based. The following applies: HEK293T Flp-in-HiBiT-IKZF1 stable cell line, 6 hrs incubation; for DC50: read-out: IKZF1 HiBit DC50; for Dmax: HEK-293T, read-out: IKZF1 HiBit Dmax (%). The essentials:
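Degradation was measured as loss of luminescence from the HiBiT-IKZF1 tag after 6 h compound treatment, with 0.1% final DMSO, in stable HEK293T Flp-in cells. Values were normalized to DMSO, giving the 50% degradation concentration and the maximal degradation range.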

IKZF1, sequence (Q13422 whole entry): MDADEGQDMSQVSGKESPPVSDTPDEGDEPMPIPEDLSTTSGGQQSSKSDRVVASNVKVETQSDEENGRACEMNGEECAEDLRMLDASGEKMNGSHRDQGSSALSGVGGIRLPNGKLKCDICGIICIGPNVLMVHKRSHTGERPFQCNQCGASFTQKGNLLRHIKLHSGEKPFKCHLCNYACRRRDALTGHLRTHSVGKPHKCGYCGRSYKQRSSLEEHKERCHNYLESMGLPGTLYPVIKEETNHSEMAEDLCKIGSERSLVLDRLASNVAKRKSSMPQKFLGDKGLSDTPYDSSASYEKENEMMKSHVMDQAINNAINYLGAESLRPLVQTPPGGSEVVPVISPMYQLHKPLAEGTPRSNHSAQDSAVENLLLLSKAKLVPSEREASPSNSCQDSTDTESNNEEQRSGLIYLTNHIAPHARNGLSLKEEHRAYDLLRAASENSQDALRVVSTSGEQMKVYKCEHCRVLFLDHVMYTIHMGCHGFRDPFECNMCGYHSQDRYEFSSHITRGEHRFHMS
IKZF1, sequence (Q96SW2 whole entry): as the sequence (Q96SW2 whole entry, species assumed) above
IKZF1, sequence (Q16531 2-1140 partner): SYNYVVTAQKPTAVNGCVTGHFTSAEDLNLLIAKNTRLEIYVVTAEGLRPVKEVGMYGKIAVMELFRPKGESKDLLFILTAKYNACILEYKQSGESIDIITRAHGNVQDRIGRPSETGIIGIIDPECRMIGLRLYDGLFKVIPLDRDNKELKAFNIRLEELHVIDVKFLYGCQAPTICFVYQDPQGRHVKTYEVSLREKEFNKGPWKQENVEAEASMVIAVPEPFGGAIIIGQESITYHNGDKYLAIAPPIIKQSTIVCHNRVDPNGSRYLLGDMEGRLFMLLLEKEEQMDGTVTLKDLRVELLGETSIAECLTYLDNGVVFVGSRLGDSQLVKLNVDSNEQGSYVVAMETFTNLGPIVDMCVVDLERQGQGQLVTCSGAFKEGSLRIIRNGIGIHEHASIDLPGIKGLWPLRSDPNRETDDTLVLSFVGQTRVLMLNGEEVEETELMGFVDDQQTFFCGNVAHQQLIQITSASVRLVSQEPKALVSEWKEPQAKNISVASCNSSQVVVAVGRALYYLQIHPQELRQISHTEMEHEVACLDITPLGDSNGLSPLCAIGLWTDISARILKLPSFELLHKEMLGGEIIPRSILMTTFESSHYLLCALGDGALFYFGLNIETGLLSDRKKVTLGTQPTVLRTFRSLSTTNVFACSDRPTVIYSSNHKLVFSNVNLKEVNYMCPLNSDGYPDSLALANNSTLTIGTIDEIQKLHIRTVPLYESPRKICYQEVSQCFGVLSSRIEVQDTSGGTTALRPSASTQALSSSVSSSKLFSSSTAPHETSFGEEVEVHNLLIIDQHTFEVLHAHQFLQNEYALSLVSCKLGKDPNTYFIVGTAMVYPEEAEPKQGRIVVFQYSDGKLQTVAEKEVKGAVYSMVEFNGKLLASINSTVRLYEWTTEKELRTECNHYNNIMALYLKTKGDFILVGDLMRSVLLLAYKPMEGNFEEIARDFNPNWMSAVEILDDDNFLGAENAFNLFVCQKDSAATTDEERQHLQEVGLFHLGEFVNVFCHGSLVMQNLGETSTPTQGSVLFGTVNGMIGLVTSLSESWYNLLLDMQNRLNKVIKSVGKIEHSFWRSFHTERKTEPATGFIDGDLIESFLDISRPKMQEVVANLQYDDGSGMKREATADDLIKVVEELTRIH
IKZF2, sequence (Q9UKS7 whole entry): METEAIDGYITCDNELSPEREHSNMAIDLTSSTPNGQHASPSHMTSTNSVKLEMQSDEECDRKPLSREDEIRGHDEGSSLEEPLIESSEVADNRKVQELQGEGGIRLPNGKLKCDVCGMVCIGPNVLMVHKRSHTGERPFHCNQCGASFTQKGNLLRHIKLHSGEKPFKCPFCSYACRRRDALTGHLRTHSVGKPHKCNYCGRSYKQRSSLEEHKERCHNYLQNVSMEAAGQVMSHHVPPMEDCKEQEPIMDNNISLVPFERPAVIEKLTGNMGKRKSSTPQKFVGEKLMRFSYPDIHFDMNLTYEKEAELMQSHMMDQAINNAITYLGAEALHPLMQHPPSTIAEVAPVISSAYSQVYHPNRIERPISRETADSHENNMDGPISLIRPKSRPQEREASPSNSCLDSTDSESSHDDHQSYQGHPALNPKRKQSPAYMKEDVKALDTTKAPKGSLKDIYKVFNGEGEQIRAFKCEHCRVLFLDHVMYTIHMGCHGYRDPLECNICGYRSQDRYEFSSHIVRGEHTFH
IKZF2, sequence (Q96SW2 whole entry): as the sequence (Q96SW2 whole entry, species assumed) above
IKZF2, sequence (Q16531 2-1140 partner): as the sequence (Q16531 2-1140 partner) above

For `O=C1CCC(N2Cc3cc(-c4cc(CN5CC(CO)C5)c5ccn(C6COC6)c5n4)ccc3C2=O)C(=O)N1` (stereo not shown) [Example 165, 3-(5-(4-((3-(hydroxymethyl)azetidin-1-yl)methyl)-1-(oxetan-3-yl)-1H-pyrrolo[2,3-b]pyridin-6-yl)-1-oxoisoindolin-2-yl) piperidine-2,6-dione], in assay [1], the DC50 is 0.01 to 0.1 µM and the Dmax was 60 to 80%. The IC50 in assay [2] was in the range of 0.1 to 0.5 µM. Besides, in assay [3], the DC50 was over 10 µM and the Dmax is under 20%.

On to `O=C1CCC(N2Cc3cc(-c4cc(CN5CCCC5)c5ccccc5n4)ccc3C2=O)C(=O)N1` (stereo not shown) [Example 78, 3-(1-oxo-5-(4-(pyrrolidin-1-ylmethyl)quinolin-2-yl)isoindolin-2-yl) piperidine-2,6-dione], for which, in assay [1], the DC50 was under 0.001 µM and the Dmax is over 80%. The IC50 in assay [2] fell in the range of 0.5 to 1 µM. Further, in assay [3], the DC50 was over 10 µM and the Dmax was in the range of 20 to 40%.

For the compound `Cn1ccc2c(CN3CCN(S(C)(=O)=O)CC3)cc(-c3ccc4c(c3)CN(C3CCC(=O)NC3=O)C4=O)nc21` (stereo not shown) [Example 61, 3-(5-(1-methyl-4-((4-(methylsulfonyl)piperazin-1-yl)methyl)-1H-pyrrolo[2,3-b]pyridin-6-yl)-1-oxoisoindolin-2-yl) piperidine-2,6-dione], in assay [1], the DC50 was 0.01 to 0.1 µM and the Dmax fell in the range of 40 to 60%. This compound registered a concentration for half-maximal inhibition (IC50) in assay [2] of 0.5 to 1 µM. Also, in assay [3], the DC50 was over 10 µM and the Dmax is under 20%.

`O=C1CCC(N2Cc3cc(-c4cc(CN5CCC5)c5cc[nH]c5n4)ccc3C2=O)C(=O)N1` (stereo not shown) [Example 84, 3-(5-(4-(azetidin-1-ylmethyl)-1H-pyrrolo[2,3-b]pyridin-6-yl)-1-oxoisoindolin-2-yl) piperidine-2,6-dione]: in assay [1], the DC50 was in the range of 0.001 to 0.01 µM and the Dmax is over 80%. Moreover, the IC50 in assay [2] is under 0.1 µM. Further, in assay [3], the DC50 is 0.01 to 0.1 µM and the Dmax was 20 to 40%.

As for `Cc1nc2c(CN3CCCC3)cc(-c3ccc4c(c3)CN(C3CCC(=O)NC3=O)C4=O)nc2o1` (stereo not shown) [Example 197, 3-(5-(2-methyl-7-(pyrrolidin-1-ylmethyl)oxazolo [5,4-b]pyridin-5-yl)-1-oxoisoindolin-2-yl) piperidine-2,6-dione], the DC50 in assay [1] was 0.001 to 0.01 µM; in assay [3], over 10 µM. In addition, the Dmax was 60 to 80% in assay [1] and under 20% in assay [3]. In assay [2], the IC50 was 0.5 to 1 µM.

For the compound `O=C1CCC(N2Cc3cc(-c4cc(CN5CCCC5)c5c(n4)NC(=O)C5)ccc3C2=O)C(=O)N1` (stereo not shown) [Example 200, 3-(1-oxo-5-(2-oxo-4-(pyrrolidin-1-ylmethyl)-2,3-dihydro-1H-pyrrolo[2,3-b]pyridin-6-yl)isoindolin-2-yl) piperidine-2,6-dione], in assay [1], the DC50 lay in the range of 0.1 to 1 µM and the Dmax was in the range of 60 to 80%. This compound also returned an IC50 in assay [2] of 0.1 to 0.5 µM. For the same compound, in assay [3], the DC50 fell in the range of 0.1 to 1 µM and the Dmax was in the range of 20 to 40%.

As to `O=C1CCC(N2Cc3cc(-c4cc(CN5CCCC5)c5c(ccn5C5CC5)n4)ccc3C2=O)C(=O)N1` (stereo not shown) [Example 174, 3-(5-(1-cyclopropyl-7-(pyrrolidin-1-ylmethyl)-1H-pyrrolo[3,2-b]pyridin-5-yl)-1-oxoisoindolin-2-yl) piperidine-2,6-dione], in assay [1], the DC50 fell in the range of 0.001 to 0.01 µM and the Dmax lay within 60 to 80%. Further, the IC50 in assay [2] is 0.5 to 1 µM. Further, in assay [3], the DC50 was 0.01 to 0.1 µM and the Dmax fell in the range of 20 to 40%.

For `CS(=O)(=O)C1CCN(Cc2cc(-c3ccc4c(c3)CN(C3CCC(=O)NC3=O)C4=O)nc3c2ccn3C2COC2)CC1` (stereo not shown) [Example 185, 3-(5-(4-((4-(methylsulfonyl)piperidin-1-yl)methyl)-1-(oxetan-3-yl)-1H-pyrrolo[2,3-b]pyridin-6-yl)-1-oxoisoindolin-2-yl) piperidine-2,6-dione], the values for the DC50 in assay [1] and in assay [3] were 0.1 to 1 µM and over 10 µM, respectively. Also, the Dmax is 40 to 60% in assay [1] and under 20% in assay [3]. The compound further registered an IC50 in assay [2] of 0.5 to 1 µM.
